Assay results: publication PMC8539250, “Synthesis and Anti-HIV Activity of a Novel Series of Isoquinoline-Based CXCR4 Antagonists” (Molecules, 2021)
Like-named read-outs stand apart in the source and are kept apart here.

Key:
[1] = biological target: T1, CXCR4 (Homo sapiens, UniProt P61073); experiment: CXCL12-induced calcium mobilization assay in U87.CD4.CXCR4 cells (FLIPR); format: cell-based; conditions: concentration needed to inhibit CXCL12-induced calcium signaling by 50%, 6.25 nM CXCL12, mean ± SD
Method: (§1) First, the ability of the compounds to compete with fluorescently labeled CXCL12 (CXCL12^AF647) for binding at CXCR4 was determined. […] Finally, given the role of CXCR4 as a major coreceptor for HIV entry, the antiviral activity of the compounds against the X4-tropic wild type HIV-1 NL4–3 strain and the HIV-2 ROD strain was determined in MT-4 cells. In parallel, the cytotoxicity of the compounds for uninfected MT-4 cells was assessed.
The calcium mobilization assay has been described in detail previously. U87.CD4.CXCR4 cells (2 × 10^4 cells per well in DMEM/10% FBS/0.01 M HEPES) were seeded in gelatin-coated (Sigma-Aldrich; 0.1% gelatin in DPBS) black-walled 96-well plates and incubated overnight at 37 °C and 5% CO2. The next day, cells were loaded with the fluorescent calcium indicator Fluo-2 acetoxymethyl (AM) ester (4 μM; Abcam) and incubated at room temperature in the dark for 45 min. Then, cells were incubated with various concentrations of the compounds for 10 min prior to the addition of 6.25 nM CXCL12 (in assay buffer). Fluctuations in intracellular calcium levels were measured in real time by the FLIPR Tetra® (Molecular Devices, Sunnyvale, CA, USA) in all 96 wells simultaneously. The response over baseline (after CXCL12 addition) was calculated with the ScreenWorks 4.0® software (Molecular Devices, Version 4.0, www.moleculardevices.com, accessed on 10 January 2015) by dividing the obtained relative light units (RLUs) through the base line measured just before CXCL12 addition. From this the IC50 value for each compound was determined taking into account the negative (i.e., untreated cells without CXCL12 stimulation) and positive (i.e., untreated cells with CXCL12 addition) control samples.

[2] = test system: HIV-1 NL4.3; experiment: Anti-HIV-1 assay in MT-4 cells (tetrazolium-based colorimetric, cytopathic effect); format: cell-based; conditions: Human immunodeficiency virus 1, MT4
Method: (§2) First, the ability of the compounds to compete with fluorescently labeled CXCL12 (CXCL12^AF647) for binding at CXCR4 was determined. Second, since binding of CXCL12 to CXCR4 results into a transient increase of cytosolic calcium levels, the inhibition of this CXCL12-induced calcium mobilization by the various compounds was also investigated. […] In parallel, the cytotoxicity of the compounds for uninfected MT-4 cells was assessed. […] The CD4 cell line MT-4 was obtained from the American Type Culture Collection (Rockville, MD, USA) and cultured in RPMI 1640 medium (Gibco BRL, Gaithersburg, MD, USA) with 10% heat-inactivated fetal calf serum (Biowhittaker Europe, Verviers, Belgium) and 2 mmol/L L-glutamine (Gibco BRL). […] The anti-HIV-1 and anti-HIV-2 activity in MT-4 cells was determined using a tetrazolium-based colorimetric assay. […] Threefold dilutions of the drugs in 100 μL medium were added to duplicate wells of 96-well flat bottom plates (Iwaki Glass). […] The cytopathic effect induced by the virus was checked regularly microscopically. […] Each assay was performed at least three times. […] Absorbance was recorded using the VersaMax ELISA™ microplate reader (Molecular Devices) and analyzed with the Softmax Pro® software (Molecular Devices, Version 4.0, www.moleculardevices.com, accessed on 10 January 2015). Using mock-infected cells, the cytotoxic concentration 50 (CC50) of each compound was investigated.

[3] = test system: HIV-2 ROD; experiment: Anti-HIV-2 assay in MT-4 cells (tetrazolium-based colorimetric, cytopathic effect); format: cell-based; conditions: Human immunodeficiency virus 2, MT4
Method: as §2

[4] = Cytotoxicity in mock-infected MT-4 cells; format: cell-based; conditions: human, mock-infected (uninfected) MT-4 cells, concentration reducing viability of mock-infected MT4 cells by 50%; mean ± SD
Method: (§3) First, the ability of the compounds to compete with fluorescently labeled CXCL12 (CXCL12^AF647) for binding at CXCR4 was determined. Second, since binding of CXCL12 to CXCR4 results into a transient increase of cytosolic calcium levels, the inhibition of this CXCL12-induced calcium mobilization by the various compounds was also investigated. […] In parallel, the cytotoxicity of the compounds for uninfected MT-4 cells was assessed. […] The CD4 cell line MT-4 was obtained from the American Type Culture Collection (Rockville, MD, USA) and cultured in RPMI 1640 medium (Gibco BRL, Gaithersburg, MD, USA) with 10% heat-inactivated fetal calf serum (Biowhittaker Europe, Verviers, Belgium) and 2 mmol/L L-glutamine (Gibco BRL). The anti-HIV-1 and anti-HIV-2 activity in MT-4 cells was determined using a tetrazolium-based colorimetric assay. This assay been described in detail before. Threefold dilutions of the drugs in 100 μL medium were added to duplicate wells of 96-well flat bottom plates (Iwaki Glass). […] The cytopathic effect induced by the virus was checked regularly microscopically. […] The absorbance was then recorded at 490 nm with a 96-well plate reader and compared with four cell control replicates (cells without virus and drugs) and four virus control wells (cells with virus but without drug). Each assay was performed at least three times. […] Absorbance was recorded using the VersaMax ELISA™ microplate reader (Molecular Devices) and analyzed with the Softmax Pro® software (Molecular Devices, Version 4.0, www.moleculardevices.com, accessed on 10 January 2015). Using mock-infected cells, the cytotoxic concentration 50 (CC50) of each compound was investigated.

[5] = biological target: T1, CXCR4; experiment: CXCL12AF647 competition binding assay with Jurkat cells (flow cytometry); set-up: endogenous in cells; host or cells: Jurkat cells
Method: as §1
The CXCL12^AF647 binding assay with Jurkat cells has been described previously. Briefly, Jurkat cells were resuspended in assay buffer [Hank’s Balanced Salt Solution (HBSS, Thermo Fisher Scientific), 20 mM HEPES buffer, 0.2% bovine serum albumin (Sigma-Aldrich), pH 7.4] at 3 × 10^5 cells per sample and then treated with various concentrations of the compound at room temperature for 15 min. Afterwards, the cells were incubated with 2.9 nM CXCL12^AF647 (in assay buffer) at room temperature for 30 min in the dark. Cells were fixed in 1% paraformaldehyde in DPBS and specific CXCL12^AF647 binding [i.e., mean fluorescence intensity (MFI)] was quantified by flow cytometry (FACSCanto^TM II; Becton Dickinson). Data were analyzed with FlowJo® Software. The 50% inhibitory concentration (IC50) was calculated for each compound relative to the negative (i.e., autofluorescence of untreated and unlabeled cells) and positive (i.e., untreated cells exposed to CXCL12^AF647 only) control.

[6] = test system: MT-4 cells; experiment: Cytotoxicity in mock-infected MT-4 cells; format: cell-based; conditions: MT4 cell line
Method: as §3

[7] = 50% protection of MT-4 cells against HIV-induced cytopathicity, mean ± SD, read-out: HIV-1 NL4.3 EC50
[8] = 50% protection of MT-4 cells against HIV-induced cytopathicity, mean ± SD, read-out: HIV-2 ROD EC50
[9] = concentration needed to inhibit CXCL12 receptor binding by 50%, Jurkat cells, 2.9 nM CXCL12AF647, mean ± SD
[10] = MT-4 cells, read-out: EC50 against HIV-1
[11] = MT-4 cells, read-out: EC50 against HIV-2

T1 sequence (P61073 whole entry): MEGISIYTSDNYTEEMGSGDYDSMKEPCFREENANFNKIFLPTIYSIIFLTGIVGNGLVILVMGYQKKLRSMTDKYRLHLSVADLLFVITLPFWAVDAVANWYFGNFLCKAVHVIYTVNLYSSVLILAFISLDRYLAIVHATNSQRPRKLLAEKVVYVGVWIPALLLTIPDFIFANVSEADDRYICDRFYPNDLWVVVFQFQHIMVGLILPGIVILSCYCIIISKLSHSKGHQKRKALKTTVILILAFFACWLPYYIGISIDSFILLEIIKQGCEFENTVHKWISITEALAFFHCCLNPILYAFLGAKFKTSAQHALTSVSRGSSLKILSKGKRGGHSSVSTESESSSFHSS

Row | SMILES | IC50 [1] | EC50 [2, 7] | EC50 [3, 8] | CC50 at 4 d [4] | IC50 [5, 9] | EC50 [2, 10] | EC50 [3, 11] | cytotoxicity for the MT4 cell line (in words) [6] | IC50 ([5]; competition with CXCL12 for binding to CXCR4)
1 | COc1cc2ccnc(CN(CCCCN)C3CCCc4cccnc43)c2cc1OC (stereo not drawn) [Compound 19a, N1-((6,7-Dimethoxyisoquinolin-1-yl)methyl)-N1-(5,6,7,8-tetrahydroquinolin-8-yl)butane-1,4-diamine] | 25 ± 8.1 nM | 74 ± 27 nM | 42 ± 13 nM | > 100000 nM | 7.2 ± 3.2 nM |  |  |  | 
2 | COc1ccc2c(CN(CCCCN)C3CCCc4cccnc43)nccc2c1 (stereo not drawn) [Compound 19b, N1-((6-Methoxyisoquinolin-1-yl)methyl)-N1-(5,6,7,8-tetrahydroquinolin-8-yl)butane-1,4-diamine] | 28 ± 4.9 nM | 61 ± 31 nM | 77 ± 19 nM | 11100 ± 540 nM | 2.5 ± 1.2 nM |  |  |  | 
3 | NCCCCN(Cc1nccc2cc(F)ccc12)C1CCCc2cccnc21 (stereo not drawn) [Compound 19c, N1-((6-Fluoroisoquinolin-1-yl)methyl)-N1-(5,6,7,8-tetrahydroquinolin-8-yl)butane-1,4-diamine] | 33 ± 21 nM | 16 ± 12 nM | 11 ± 5.6 nM | 18100 ± 6820 nM | 8.9 ± 5.6 nM |  |  |  | 
4 | NCCCCN(Cc1nccc2cc(Br)ccc12)C1CCCc2cccnc21 (stereo not drawn) [Compound 19d, N1-((6-Bromoisoquinolin-1-yl)methyl)-N1-(5,6,7,8-tetrahydroquinolin-8-yl)butane-1,4-diamine] | 440 ± 210 nM | 550 ± 360 nM | 550 ± 360 nM | 43600 ± 1770 nM | 26 ± 1.7 nM |  |  |  | 
5 | NCCCCN(Cc1nccc2ccccc12)C1CCCc2cccnc21 (stereo not drawn) [Compound 19e, N1-(Isoquinolin-1-ylmethyl)-N1-(5,6,7,8-tetrahydroquinolin-8-yl)butane-1,4-diamine] | 130 ± 41 nM | 84 ± 15 nM | 26 ± 30 nM | 26700 ± 18600 nM | 9.2 ± 4.2 nM | < 100 nM | < 100 nM | lack cytotoxicity | 
6 | NCCCCN(Cc1ccccn1)C1CCCc2cccnc21 (stereo not drawn) [Compound 20, N1-(Pyridin-2-ylmethyl)-N1-(5,6,7,8-tetrahydroquinolin-8-yl)butane-1,4-diamine] |  | 58 ± 71 nM | 58 ± 22 nM | 55400 ± 720 nM |  | < 100 nM | < 100 nM | lack cytotoxicity | 
7 | COc1cc2ccnc(CN(CCCCN)Cc3ncccc3C)c2cc1OC [Compound 24a, N1-((6,7-dimethoxyisoquinolin-1-yl)methyl)-N1-((3-methylpyridin-2-yl)methyl)butane-1,4-diamine] | 13 ± 5.3 nM | 23 ± 8 nM | 24 ± 1.8 nM | > 100000 nM | 3.2 ± 0.99 nM | < 100 nM | < 100 nM | lack cytotoxicity | 
8 | COc1ccc2c(CN(CCCCN)Cc3ncccc3C)nccc2c1 [Compound 24b, N1-((6-Methoxyisoquinolin-1-yl)methyl)-N1-((3-methylpyridin-2-yl)methyl)butane-1,4-diamine] | 3850 ± 190 nM | > 9270 nM | > 9270 nM | 9270 ± 460 nM | 890 ± 460 nM |  |  |  | 
9 | Cc1cccnc1CN(CCCCN)Cc1nccc2cc(Br)ccc12 [Compound 24d, N1-((6-Bromoisoquinolin-1-yl)methyl)-N1-((3-methylpyridin-2-yl)methyl)butane-1,4-diamine] | 690 ± 230 nM | 2540 ± 910 nM | 2540 ± 910 nM | 29500 ± 9760 nM | 39 ± 24 nM |  |  |  | 
10 | Cc1cccnc1CN(CCCCN)Cc1nccc2ccccc12 [Compound 24e, N1-(Isoquinolin-1-ylmethyl)-N1-((3-methylpyridin-2-yl)methyl)butane-1,4-diamine] | 930 ± 720 nM | 770 ± 290 nM | 2290 ± 350 nM | 40900 ± 6530 nM | 26 ± 14 nM |  |  |  | 
11 | Cc1cccnc1CN(CCCCN)Cc1ccccn1 [Compound 25, N1-((3-Methylpyridin-2-yl)methyl)-N1-(pyridin-2-ylmethyl)butane-1,4-diamine] | 180 ± 23 nM | 230 ± 210 nM | 170 ± 160 nM | 79800 ± 13100 nM | 6.2 ± 0.57 nM |  |  |  | 0.6 nM
12 | c1cc(CN2CCCNCCNCCCNCC2)ccc1CN1CCCNCCNCCCNCC1 [Plerixafor, reference compound] |  | 4.9 ± 3.2 nM | 8.1 ± 4.2 nM | 6290 ± 720 nM |  |  |  |  | 
